From US12648948B2, “Methods and compositions for treating cancer” (UNITED STATES GOVERNMENT AS REPRESENTED BY THE DEPARTMENT …, priority 2017, dated 2026)

Legend:
[1] = system: JNK; assay: Western blot, JNK activation (phosphorylation of JNK) in glioma cells; format: cell-based, human; conditions: erlotinib; patient derived neurospheres and established GBM cell lines
Method: (§1) Western blot analysis was performed according to standard protocols.

[2] = system: Akt, STAT3; assay: Western blot, Akt and STAT3 activation in glioma cells; format: cell-based, human
Method: as §1

[3] = system: NF-κB transcriptional activity; assay: NF-κB luciferase reporter assay; format: cell-based, human; conditions: erlotinib 24 h, 100 nM GBM9, 1 uM U87EGFRwt; LPS 1 μg/ml
Method: Cells were plated in 48 well dishes to 70%-80% confluence followed by with […] or 3xAP1pGL3 reporter plasmid using lipofectamine 2000. A dual-luciferase reporter assay system was used according to manufacturer's instructions (Promega, Madison WI). Firefly luciferase activity was measured in a luminometer and normalized on the basis of Renilla luciferase activity. Experiments were done in triplicate and 3 independent experiments were done.

[4] = system: GAS6; assay: GAS6 expression (real time PCR, ELISA, Western blot); format: cell-based, human; conditions: erlotinib; patient derived neurospheres and established GBM cell lines
Method: Total RNA was isolated by TRIzol Reagent (Ambion). cDNA Reverse Transcription were performed by using High-Capacity cDNA Reverse Transcription Kit (Applied Biosystems). […] Each PCR was carried out in triplicate in a 20 μl volume using SYBR Green Master Mix (Applied Biosystems) for 15 minutes at 95° C. for initial denaturing, followed by 40 cycles of 95° C. for 15 s and 60° C. for 60 s in ViiA 7 Real-Time PCR System (Applied Biosystems). At least two independent experiments were done. Values for each gene were normalized to expression levels of GAPDH mRNA. The following primers were used: TNF, [NT] ID NO:3) and [NT] ID NO:4); […] GAPDH, [NT] ID NO:7) and [NT] ID NO:8). […] After 48 hours, supernatant and cell lysates were collected. Supernatant medium was concentrated 5-10-fold with Pierce protein concentrator (ThermoFisher). TNF protein concentration in supernatant, cell lysates and tissue extracts was determined by ELISA using a commercial TNF detection kit (ThermoFisher) according to manufacturer's instructions. Additionally, GAS6 protein concentration in supernatant was measured by ELISA kit (LifeSpan BioSciences).

[5] = system: GAS6 promoter; assay: ChIP assay, c-Jun on the GAS6 promoter; format: cell-based, human; conditions: erlotinib 1 μM, 24 h; GBM9 and U87EGFRwt cells
Method: GBM9 and U87EGFRwt cells were cultured in 15 cm plate per reaction for assay. ChIP assays were carried out using ChIP chromatin immunoprecipitation kit (Millipore) following manufacturer's instructions. The ChIP-enriched DNA samples were quantified by PCR using Platinum Taq DNA polymerase (Invitrogen). Putative AP-1 binding sites on GAS6 promoter were predicted by Using TFBIND program. The following primer pairs covering AP-1 sites were used: 5′-[…]-3′ (SEQ ID NO:1) and 5′-[…]-3′ (SEQ ID NO:2).

[6] = system: GBM9 and GBM39 neurospheres; assay: AlamarBlue cell viability assay, patient derived GBM neurospheres; format: cell-based, human; conditions: 72 h
Method: Cell viability assay was conducted using AlamarBlue cell viability assay kit (ThermoFisher) following manufacturer's protocol. Cells were cultured in Corning 96-well black plates with clear bottom (5000 cells/well). Drugs were added to cells for 72 hour following detection using POLARstar Omega Microplate Reader (excitation at 544 nm and emission at 590 nm) (BMG LABTECH, Germany).

[7] = system: GBM9 cells; assay: Annexin-FACS assay and Caspase 3/7 activation; format: cell-based, human; conditions: Annexin V flow cytometry and Caspase 3/7 activation
Method: Annexin assay was performed by using Annexin—V-FLUOS Staining kit (Roche applied Science). Cells (1×10^6) were plated in 6 well plates and treated with drugs or vehicle alone. After 72 hours cells were trypsinized and washed 2 times with 1×PBS. The cells were incubated for 15 minutes at room temperature with Propidium Iodide and Annexin—V-FLUOS labeling solution in incubation buffer. Annexin and/or PI positive cells were detected by Flow Cytometry.
Caspase activity in the supernatant was measured using the Caspase-Glo 3/7 Assay (Promega, G8091) following manufacturer's instructions. Briefly, 72 hours after treatments, cells were washed by cold PBS and total cell lysates were prepared. 50 μg of total protein per sample was added per well of a 96 well plate and was incubated with 100 μl Caspase 3/7 reagent for 30 minutes. The luminescence of each sample was measured using a luminometer. All experiments included at least 3 replicates per group and were repeated 3 times.

[8] = system: GBM9 cells; assay: Cell proliferation by cell counting (trypan blue dye exclusion); format: cell-based, human; conditions: 72 hours
Method: FIG. 15A GBM9 cells were plated in 6 well plated and treated with drugs as indicated. Cell proliferation was measured through cell counting using the trypan blue dye exclusion test. […] Erlotinib vs erlotinib+SP: P=0.0016, t=7.60, d.f.=4; Erlotinib vs erlotinib+U: P=0.0012, t=8.24, d.f.=4.

[9] = system: TNF; assay: TNF ELISA on GBM9 xenograft tumor extracts; format: in vivo, mice
Method: To detect the in vivo levels of TNF, 1×10^6 GBM9 cells were injected into the right flanks of nude mice. When the subcutaneous tumor reached a volume of around 200 mm^3, the mice were treated with erlotinib to monitor the upregulation of TNF protein. The animals were dosed consecutively for 1, 2, 7 or 14 days and then sacrificed. The animals without treatment were considered as control (0-day treatment). Tumor tissues were rinsed in PBS and protein was extracted to analyze the TNF levels using ELISA and also used for western blot. To detect the protein expression in mice brain tumor tissues upon drug treatment, the same procedure was performed in orthotopic models. Additionally, with orthotopic models, mice were divided into four groups (control gavage group, erlotinib group, thalidomide group and erlotinib plus thalidomide, n=3). After 48 hours treatment tumors were harvested and subjected to Western blot and immunostaining.

[10] = Toxicity and body weight of treated tumor-bearing mice; conditions: in combination with thalidomide or SP600125, total of 10 days
[11] = system: GBM9 intracranial tumors; assay: Orthotopic (intracranial) GBM9 model, survival and bioluminescence imaging; conditions: erlotinib 50 mg/kg oral gavage and/or thalidomide 150 mg/kg i.p., 10 days; repeated with afatinib
Method: For the orthotropic model, 1×10^5 GBM9 cells expressing firefly luciferase were injected into the right corpus striatum of the brains of 6-8-week-old nude mice using a stereotactic frame. […] The mice were treated with erlotinib 50 mg/kg by oral gavage and/or intraperitoneal (i.p.) injection of 150 mg/kg thalidomide for 10 consecutive days. Bioluminescence imaging (BLI) was performed to record the growth of tumor every 5 days. Kaplan-Maier survival curves were calculated using GraphPad Prism 7.0 software. Mice were monitored and sacrificed when neurological signs appeared or after 40 days.

C#Cc1cccc(Nc2ncnc3cc(OCCOC)c(OCCOC)cc23)c1 [erlotinib]
JNK activation (phosphorylation of JNK) [1]: activation of INK
Akt or STAT3 activation ([2]; GBM9 neurospheres, erlotinib 1 μM): did not detect an increase in Akt or STAT3 activation
STAT3 and Akt activation at higher concentration ([2]; glioma cells, erlotinib 10 μM or afatinib 10 μM): STAT3 and Akt activation are suppressed
NF-κB reporter / transcriptional activity [3]: does not result in an increase in NF-κB reporter activity
GAS6 expression [4]: increase in GAS6
Binding of c-Jun to the GAS6 promoter [5]: binding of cJun to the GAS6 promoter
Cell viability, erlotinib alone at low concentration ([6]; erlotinib 100 nM): resistant to EGFR inhibition
Cell viability, erlotinib alone at 1 μM ([6]; erlotinib 1 μM): significant cell death
Mode of cell death, erlotinib combined with Axl, JNK, ERK or TNF inhibition [7]: apoptotic cell death
Cell growth / cell numbers, combination with erlotinib [8]: significant decreases in cell numbers
TNF level in subcutaneous mouse tumors ([9]; GBM9 flank tumors, erlotinib 50 mg/kg): increase in TNF can be detected 1 day after administration of erlotinib
Time to upregulation of TNF in GBM xenograft tumors ([9]; erlotinib): about 24 hours
Short term toxicity [10]: without significant immediate short term toxicity
Survival of mice [11]: neither erlotinib nor thalidomide alone had a significant effect
